Results as given in ChEMBL document CHEMBL3763039, “Development and Characterization of Potent Cyclic Acyldepsipeptide Analogues with Increased Antimicrobial Activity” (2016).
Converted amounts (≈) assume the structure as drawn. Where a SMILES comes first, the peptide text is derived from it. Bridges are numbered along the chain shown (N, C = ends). [ ]: non-standard residue; d: D form. The star is where a group is joined. Phe(3,5-F2) = N[C@@H](Cc1cc(F)cc(F)c1)C(=O)O; Pro(4R-Me) = C[C@H]1CN[C@H](C(=O)O)C1; Heptenoyl(2E) = CCCC/C=C/C(=O)*; Cha = N[C@@H](CC1CCCCC1)C(=O)O; aThr = C[C@H](O)[C@H](N)C(=O)O; Pip = O=C(O)[C@@H]1CCCCN1; NMeA = CN[C@@H](C)C(=O)O; X1 = CCC/C=C/C=C/C(=O)*; Abu = CC[C@H](N)C(=O)O

What was measured:
Type in all cases: functional
[1] = test system: Staphylococcus aureus; assay: Antibacterial activity against methicillin-resistant Staphylococcus aureus 1784A incubated for 16 to 18 hrs by broth microdilution method
[2] = test system: Staphylococcus aureus; assay: Antibacterial activity against Staphylococcus aureus subsp. aureus Newman clinical isolate incubated for 16 to 18 hrs by broth microdilution method
[3] = test system: Staphylococcus aureus; assay: Antibacterial activity against Staphylococcus aureus ATCC 29213 incubated for 16 to 18 hrs by broth microdilution method
[4] = test system: Neisseria meningitidis; assay: Antibacterial activity against clpP deficient Neisseria meningitidis H44/76 incubated for 16 to 18 hrs by broth microdilution method
[5] = test system: Pseudomonas aeruginosa; assay: Antibacterial activity against Pseudomonas aeruginosa PAO1 incubated for 16 to 18 hrs by broth microdilution method
[6] = test system: Neisseria meningitidis; assay: Antibacterial activity against Neisseria meningitidis H44/76 incubated for 16 to 18 hrs by broth microdilution method
[7] = test system: Enterococcus faecalis; assay: Antibacterial activity against vancomycin-resistant Enterococcus faecalis V583 incubated for 16 to 18 hrs by broth microdilution method
[8] = test system: Neisseria gonorrhoeae; assay: Antibacterial activity against chloramphenicol-resistant Neisseria gonorrhoeae N.279 incubated for 16 to 18 hrs by broth microdilution method
[9] = test system: Escherichia coli; assay: Antibacterial activity against Escherichia coli MC4100 expressing lptD-4213 incubated for 16 to 18 hrs by broth microdilution method
[10] = test system: Streptococcus pneumoniae; assay: Antibacterial activity against Streptococcus pneumoniae D39 incubated for 16 to 18 hrs by broth microdilution method
[11] = test system: Listeria innocua; assay: Antibacterial activity against Listeria innocua incubated for 16 to 18 hrs by broth microdilution method
[12] = test system: Escherichia coli; assay: Antibacterial activity against Escherichia coli MC4100 incubated for 16 to 18 hrs by broth microdilution method
[13] = test system: Bacillus subtilis; assay: Antibacterial activity against Bacillus subtilis PY79 incubated for 16 to 18 hrs by broth microdilution method

CCC/C=C/C=C/C(=O)N[C@@H](Cc1ccccc1)C(=O)N[C@H]1COC(=O)[C@@H]2C[C@@H](C)CN2C(=O)[C@H](C)NC(=O)[C@H](C)N(C)C(=O)[C@@H]2CCCN2C1=O (X1-FSP[NMeA]A[Pro(4R-Me)]; ester 2-C)
MIC [1]: 0.5 µg/mL (≈ 0.694 µM)
MIC [2]: 0.25 µg/mL (≈ 0.347 µM)
MIC [3]: 0.5 µg/mL (≈ 0.694 µM)
MIC [4]: > 128 µg/mL
MIC [5]: > 128 µg/mL
MIC [6]: 0.0313 µg/mL (≈ 0.0434 µM)
MIC [7]: 0.125 µg/mL (≈ 0.173 µM)
MIC [8]: 0.0156 µg/mL (≈ 0.0216 µM)
MIC [9]: > 128 µg/mL
MIC [10]: ≤ 0.0625 µg/mL
MIC [11]: ≤ 0.0625 µg/mL
MIC [12]: > 128 µg/mL
MIC [13]: 0.125 µg/mL (≈ 0.173 µM)

CCCC/C=C/C(=O)N[C@@H](Cc1cc(F)cc(F)c1)C(=O)N[C@@H]1C(=O)N2CCC[C@H]2C(=O)N2CC[C@H](C)C[C@H]2C(=O)N[C@@H](C)C(=O)N2C[C@H](C)C[C@H]2C(=O)O[C@H]1C
MIC [1]: 8 µg/mL (≈ 10 µM)
MIC [2]: 0.25 µg/mL (≈ 0.313 µM)
MIC [3]: 0.0078 µg/mL (≈ 0.00976 µM)
MIC [4]: > 128 µg/mL
MIC [5]: > 128 µg/mL
MIC [6]: 0.0625 µg/mL (≈ 0.0782 µM)
MIC [7]: 0.0156 µg/mL (≈ 0.0195 µM)
MIC [8]: 0.125 µg/mL (≈ 0.156 µM)
MIC [9]: > 128 µg/mL
MIC [10]: ≤ 0.0625 µg/mL
MIC [11]: ≤ 0.0625 µg/mL
MIC [12]: > 128 µg/mL
MIC [13]: ≤ 0.0625 µg/mL

O=C(N[C@H](CO)[C@H](O)c1ccc([N+](=O)[O-])cc1)C(Cl)Cl [CHLORAMPHENICOL]
MIC [4]: 1 µg/mL (≈ 3.09 µM)
MIC [5]: 8 µg/mL (≈ 24.8 µM)
MIC [6]: 0.5 µg/mL (≈ 1.55 µM)
MIC [8]: 64 µg/mL (≈ 198 µM)
MIC [9]: 2 µg/mL (≈ 6.19 µM)
MIC [12]: 3.1 µg/mL (≈ 9.59 µM)

CCCC/C=C/C(=O)N[C@@H](Cc1cc(F)cc(F)c1)C(=O)N[C@@H]1C(=O)N2CCC[C@H]2C(=O)N2CCCC[C@H]2C(=O)N[C@@H](C)C(=O)N2C[C@H](C)C[C@H]2C(=O)O[C@H]1C
MIC [1]: 0.125 µg/mL (≈ 0.159 µM)
MIC [2]: 0.0625 µg/mL (≈ 0.0796 µM)
MIC [3]: 0.0039 µg/mL (≈ 0.00497 µM)
MIC [4]: > 128 µg/mL
MIC [5]: > 128 µg/mL
MIC [6]: 0.0625 µg/mL (≈ 0.0796 µM)
MIC [7]: 0.0078 µg/mL (≈ 0.00994 µM)
MIC [8]: 0.0625 µg/mL (≈ 0.0796 µM)
MIC [9]: > 128 µg/mL
MIC [10]: ≤ 0.0625 µg/mL
MIC [11]: ≤ 0.0625 µg/mL
MIC [12]: > 128 µg/mL
MIC [13]: ≤ 0.0625 µg/mL

C[C@@H]1C[C@H]2C(=O)O[C@@H](C)[C@H](NC(=O)[C@H](Cc3cc(F)cc(F)c3)NC(=O)/C=C/CC3CCCCC3)C(=O)N3CCC[C@H]3C(=O)N3CCCC[C@H]3C(=O)N[C@@H](C)C(=O)N2C1
MIC [1]: 0.125 µg/mL (≈ 0.152 µM)
MIC [2]: 0.0625 µg/mL (≈ 0.0758 µM)
MIC [3]: 0.0078 µg/mL (≈ 0.00945 µM)
MIC [4]: > 128 µg/mL
MIC [5]: > 128 µg/mL
MIC [6]: 0.0625 µg/mL (≈ 0.0758 µM)
MIC [7]: 0.0078 µg/mL (≈ 0.00945 µM)
MIC [8]: 0.125 µg/mL (≈ 0.152 µM)
MIC [9]: > 128 µg/mL
MIC [10]: 0.0625 µg/mL (≈ 0.0758 µM)
MIC [11]: ≤ 0.0625 µg/mL
MIC [12]: > 128 µg/mL
MIC [13]: ≤ 0.0625 µg/mL

CCC/C=C/C=C/C(=O)N[C@@H](Cc1cc(F)cc(F)c1)C(=O)N[C@@H]1C(=O)N2CCC[C@H]2C(=O)N2CCCC[C@H]2C(=O)N[C@@H](C)C(=O)N2C[C@H](C)C[C@H]2C(=O)O[C@H]1C (X1-[Phe(3,5-F2)][aThr]P[Pip]A[Pro(4R-Me)]; ester 2-C)
MIC [1]: 0.125 µg/mL (≈ 0.157 µM)
MIC [2]: 0.0625 µg/mL (≈ 0.0784 µM)
MIC [3]: 0.0019 µg/mL (≈ 0.00238 µM)
MIC [4]: > 128 µg/mL
MIC [5]: > 128 µg/mL
MIC [6]: 0.0313 µg/mL (≈ 0.0393 µM)
MIC [7]: 0.0039 µg/mL (≈ 0.00489 µM)
MIC [8]: 0.0078 µg/mL (≈ 0.00979 µM)
MIC [9]: 4 µg/mL (≈ 5.02 µM)
MIC [10]: ≤ 0.0625 µg/mL
MIC [11]: ≤ 0.0625 µg/mL
MIC [12]: > 128 µg/mL
MIC [13]: ≤ 0.0625 µg/mL

CCCC/C=C/C(=O)N[C@@H](CC1CCCCC1)C(=O)N[C@H]1COC(=O)[C@@H]2C[C@@H](C)CN2C(=O)[C@H](CC)NC(=O)[C@@H]2CCCCN2C(=O)[C@@H]2CCCN2C1=O ({Heptenoyl(2E)}-[Cha]SP[Pip][Abu][Pro(4R-Me)]; ester 2-C)
MIC [1]: 4 µg/mL (≈ 5.3 µM)
MIC [2]: 1 µg/mL (≈ 1.32 µM)
MIC [3]: 1 µg/mL (≈ 1.32 µM)
MIC [5]: > 128 µg/mL
MIC [6]: 32 µg/mL (≈ 42.4 µM)
MIC [7]: 1 µg/mL (≈ 1.32 µM)
MIC [8]: 32 µg/mL (≈ 42.4 µM)
MIC [9]: > 128 µg/mL
MIC [10]: 0.5 µg/mL (≈ 0.662 µM)
MIC [11]: ≤ 0.0625 µg/mL
MIC [12]: > 128 µg/mL
MIC [13]: 2 µg/mL (≈ 2.65 µM)
